SMILES strings stand for the structures.

Data set [1] in a line: Concentration reached in aqueous buffer for co-crystallization. The data set is classed as physicochemical. As to conditions: aqueous buffer with 10% DMSO.
The conditions of data set [2]: ES1e mice, oral, 40 mg/kg; cited from earlier work.
For a further data set, the target named is PCNA (Homo sapiens, UniProt P12004). As to the kind of experiment: Thermal denaturation. It counts as binding. As to conditions: dose-dependent, largest shift.
Sequence of PCNA (P12004 whole entry): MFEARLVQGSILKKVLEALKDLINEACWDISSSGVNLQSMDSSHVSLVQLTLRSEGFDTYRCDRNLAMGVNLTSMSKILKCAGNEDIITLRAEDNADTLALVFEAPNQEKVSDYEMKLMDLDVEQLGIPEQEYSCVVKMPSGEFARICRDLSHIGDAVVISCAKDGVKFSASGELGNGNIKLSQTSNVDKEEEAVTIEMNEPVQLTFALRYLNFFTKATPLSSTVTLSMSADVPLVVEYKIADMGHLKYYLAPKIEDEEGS
In data set [3] the test system is more than 70 cancer cell lines. As to the kind of experiment: Growth inhibition across cancer cell lines. As to conditions: read-out: median concentration to achieve 50% growth inhibition (GI50). It counts as cell-based.
Data set [4] concerns human PBMCs, small airway epithelial cells (hSEAC), neural crest stem cells (7SM0032). As to the kind of experiment: Growth of nonmalignant cells. It counts as cell-based.
In data set [5] the test system is Salmonella tester strains TA98 and TA100. As to the kind of experiment: Ames test. As to conditions: TA98 frameshift, TA100 base pair substitution.
The nature of another data set: Oral PK study in mice. It counts as in vivo, ES1e/SCID mice.
Data set [6] is described as follows: GLP-controlled toxicity study. Also noted: species or system mice. As to conditions: mouse, in vivo.
Data set [7] can be described thus: GLP-controlled toxicity study. Set-up: species or system dogs. As to conditions: dog, in vivo.
In data set [8] the test system is SK-N-BE(2)c neuroblastoma xenograft. Nature of the data set: Xenograft tumor growth. As to conditions: 40 mg/kg twice daily.
Data set [9] relates to MDA-MB-468 breast cancer xenograft. As to the kind of experiment: Xenograft tumor growth. As to conditions: MDA-MB-468 xenograft, 40 mg/kg twice daily, oral.
The test system of data set [10] is H82 small-cell lung cancer xenograft. As to the kind of experiment: Xenograft tumor growth. As to conditions: 40 mg/kg twice daily, oral.

Regarding `COc1cccc(Oc2ccccc2NC(=O)[C@H](CCC(=O)O)NC(=O)c2cccc3ccccc23)c1` [AOH1996LE], in [1], the “concentration in aqueous buffer” value was 4000 µM.
For orientation: half-life means how long it takes for the measured level to halve. `O=C(CNC(=O)c1cccc2ccccc12)Nc1ccccc1Oc1ccccc1` [AOH1160]: the half-life in data set [2] is recorded as 3.4 h.
Broadly, the NOAEL is the highest tested level that showed no adverse finding. Regarding `COc1cccc(Oc2ccccc2NC(=O)CNC(=O)c2cccc3ccccc23)c1` [AOH1996], the “shift of protein melting curves” value at PCNA was ≤ 1.5 °C. Besides, the GI50 in data set [3] is ~300 nM. For the same molecule, the “concentration not significantly toxic to nonmalignant cells” value in data set [4] is reported as “at least 10 μM”. The “mutagenicity in Ames test” value in [5] is on record as “does not cause frameshift or base pair substitution”. In “Oral PK study in mice” (animals, data not shown), the “absorption into the circulatory system” value is reported as ~90%. Besides, the “increase in area under the curve (AUC) versus AOH1160” value in “Oral PK study in mice” (mice, 40 mg/kg) is listed as ~4%. The “increase in half-life versus AOH1160” value in “Oral PK study in mice” (mice, 40 mg/kg) was ~ 27%. The “increase in peak concentration (Cmax) versus AOH1160” value in “Oral PK study in mice” (mice, 40 mg/kg) is recorded as ~40%. For the same molecule, the NOAEL at 4 weeks in [6] was ≥ 250 mg/kg; in data set [7] it was 75 mg/kg. Also, the “tumor burden versus vehicle” value in [8] (SK-N-BE(2)c xenograft, oral) is recorded as “significantly reduced the tumor burden”; in [9] it was “significantly reduced the tumor burden”; in data set [10], “significantly reduced the tumor burden”. Moreover, the “death and body weight in tumor studies” value in [8] (xenograft-bearing ES1e/SCID mice) was “did not cause any death or significant weight loss”.
